According to patent publication US12678509B2, “Inhibitor of apoptosis (IAP) protein antagonists” (Sanford Burnham Prebys Medical Discovery Institute, priority 2019, dated 2026):

Legend:
MOLM 13 = assay: Cell viability (CellTiter-Glo), 6-day compound treatment; type: cell-based, Human; details: Homo sapiens, MOLM-13, 144 h, read-out: MOLM 13 Viability 6 d IC50
Description: (§1) The compound 18a was tested in 16 different cell lines. For 6-day compound treatment 1700 cells per well were plated in a 384-well plate (Corning #781098) and incubated overnight at 37° C./5% CO2. The following day, compounds in 10-fold dilutions were added to the plates and the plates were incubated for 6 days. Afterwards, 20 μL CellTiter-Glo reagent (Promega, #G7570) was added to each well outside of the incubator and the plates were read for luminescence on a Spark® multimode microplate reader (Tecan). Data was fit in GraphPad Prism 8 to a nonlinear regression curve to determine the IC50 of the compounds. […]

ML-IAP = target: T1, ML-IAP (Homo sapiens, UniProt Q96CA5); assay: Fluorescence polarization assay; type: binding; details: SMAC-FITC probe, Ki calculated from IC50
T1 sequence (Q96CA5 1-298): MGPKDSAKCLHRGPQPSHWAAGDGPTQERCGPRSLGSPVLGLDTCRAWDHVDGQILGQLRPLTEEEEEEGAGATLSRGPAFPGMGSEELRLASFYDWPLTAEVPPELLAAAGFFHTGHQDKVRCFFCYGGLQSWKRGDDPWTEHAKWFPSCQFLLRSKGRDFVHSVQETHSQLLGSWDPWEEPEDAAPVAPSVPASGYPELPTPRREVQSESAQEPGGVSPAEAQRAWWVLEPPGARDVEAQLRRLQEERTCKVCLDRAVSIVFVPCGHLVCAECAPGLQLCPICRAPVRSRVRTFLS
Description: (§2) Binding of compounds to ML-IAP and BIR3 domain of cIAP1, cIAP2 and XIAP was determined by fluorescence polarization. Assay buffer was 100 mM KH2PO4 at pH 7.5, 50 μM ZnSO4, 1 mM TCEP (Tris(2-carboxyethyl)phosphine hydrochloride) and 50 nM SMAC-FITC probe (AbuRPF-K(5-Fam)-NH2) as described by Z. Nikolovska-Coleska et al.^9. cIAP1 and XIAP were present at 800 nM while cIAP2 and MLIAP were present at 1.5 μM. Compounds in 3-fold dilutions were added to the plates ranging from 30 μM to 1.5 nM. Assays were run in 384-well black plates read (Greiner Bio-One #784076) in an Analyst in fluorescence polarization mode with excitation at 485 nm and emission at 535 nm. Data was fit to a nonlinear regression curve in GraphPad Prism 8 to determine the IC50 values of the compounds. Ki's were then calculated from the IC50 values using equation: Ki=[I]50/([L]50/Kd+[P]0/Kd+1) formulated by Z. Nikolovska-Coleska et al.

BIR3 domain of cIAP1 = BIR3 domain of cIAP1 (Homo sapiens, UniProt Q13490); assay: Fluorescence polarization assay; type: binding; details: SMAC-FITC probe, Ki calculated from IC50
Description: as §2

BIR3 domain of XIAP = BIR3 domain of XIAP (Homo sapiens, UniProt P98170); assay: Fluorescence polarization assay; type: binding; details: SMAC-FITC probe, Ki calculated from IC50
Description: as §2

BIR3 domain of cIAP2 = BIR3 domain of cIAP2 (Homo sapiens, UniProt Q13489); assay: Fluorescence polarization assay; type: binding; details: SMAC-FITC probe, Ki calculated from IC50
Description: as §2

NB-4 = assay: Cell viability (CellTiter-Glo); type: cell-based, Human; details: Homo sapiens, NB-4, 72 h, read-out: NB-4 Viability 72 h IC50
Description: as §1, with “The following day, compounds in 10-fold dilutions were added to the plates and the plates were incubated for 6 days.” left out

AML-SH-075 = assay: Cell viability in patient derived AML samples (CellTiterGlo, 72 h); type: cell-based, human; details: for IC50: Homo sapiens, 72 h, read-out: AML-SH-075 IC50; for AML-SH-075 Efficacy: patient derived AML sample AML-SH-075, 72 h, cell viability at max. concentration
Description: (§3) Patient AML samples were gathered (under IRB 13-6180) from Scripps MD Anderson, La Jolla, CA Fresh blood samples were subjected to gradient density centrifugation with Ficoll-Paque™ PLUS (17-1440-02, GE Healthcare) and peripheral blood mononuclear cells purified as per manufacturer's protocol.
(§4) 75 nL of 1000× serially diluted IAP inhibitors were spotted in triplicate onto 384-well tissue culture treated plates (Greiner) using a Labcyte Echo acoustic dispensing device. Patient-derived AML cells were maintained in mTeSR1^+1× supplements (Stemcell Technologies) and penicillin/streptomycin/L-glutamine (Omega Scientific Inc.) and Fungizone (HyClone). 25 μL of cell dilution were plated into 384-well plate containing the drugs and incubated for 72 h. Cell viability was assessed by adding 25 μL CellTiterGlo (Promega Corp.) on a Synergy 2 plate reader with Gen5 software (Biotek). % viability was calculated by normalizing luminescence to vehicle only controls (DMSO) in Microsoft Excel and plotted using GraphPad Prism 8. The IC50 values were calculated using log(inhibitor) vs. response—Variable slope (four parameters) equation. (FIG. 6)

AML-SH-065 = assay: as above; type: cell-based, human; details: for IC50: Homo sapiens, 72 h, read-out: AML-SH-065 IC50; for AML-SH-065 Efficacy: patient derived AML sample AML-SH-065, 72 h, cell viability at max. concentration
Description: as §3, §4

AML-SH-074 = assay: as above; type: cell-based, human; details: for IC50: Homo sapiens, 72 h, read-out: AML-SH-074 IC50; for AML-SH-074 Efficacy: patient derived AML sample AML-SH-074, 72 h, cell viability at max. concentration
Description: as §3, §4

[1] = system: latently infected cell line Jurkat 2D10; assay: HIV Jurkat 2D10 cells GFP+ assay (reversal of HIV latency); type: cell-based; details: Homo sapiens, Jurkat, 48 h, read-out: Jurkat 2D10 GFP+ EC50
Description: Several compounds (Table 5) were tested for their efficacy in the reversal of HIV latency in the latently infected cell line Jurkat 2D10. Jurkat 2D10 cells were treated with different doses of the compounds, or one of the following compounds: BV-6, SM-164, Birinapant, LCL-161, GDC-0152, AT-406 for 48 hours. Reversal of HW latency was evaluated by analyzing GFP expression using flow cytometry. Induction of GFP expression was compared to baseline GFP levels detected in the absence of treatment.

SKOV-3 = assay: Cell viability (CellTiter-Glo), 48 hrs; type: cell-based; details: Homo sapiens, SK-OV-3, 48 h, read-out: SKOV-3 Viability 48 h IC50
Description: One thousand seven hundred cells per well were plated in a 384 well plate and incubated overnight at 37° C./5% CO2. The following day, compounds in 10-fold dilutions were added to the plates and the plates returned to the incubator for 48 hrs. 48 hrs later, plates were removed to the bench and 20 μL CellTiter-Glo reagent was added to each well and the plates were read for luminescence on a Spark® multimode microplate reader (Tecan). Data were fit using PRISM to a nonlinear regression curve to determine the IC50 of the compounds.

[2] = Pharmacokinetic study in mice, snapshot PK; type: in vivo; details: female, C57BL/6J, mouse, plasma, ip, one hour after i.p. injection of 10 mg/kg
Description: (§5) All animal procedures were approved by the Sanford Burnham Prebys Medical Discovery Institute Institutional Animal Care and Use Committee and were performed according to the NIH guidelines for the Care and Use of Laboratory Animals. Adult female C57BL/6J were purchased from JAX laboratories and housed with free access to food and water on a 12 h light/dark cycle. Compounds were formulated in 5% DMSO, 10% Tween-80, and 85% dH2O and injected intraperitoneally (i.p.) into mice at doses of 10 mg/kg. For snapshot PK analysis, blood samples were collected retro-orbitally one hour after injection and for the time course PK study, blood samples were collected at 15 min, 30 min, 1 h, 2 h, 4 h, 6 h, 24 h time points. For the blood samples plasma was separated by centrifugation. Plasma samples were extracted with acetonitrile:water 4:1 with 0.1% formic acid containing indometacin as an internal standard. Samples were centrifuged and supernatants were diluted with acetonitrile:water and analyzed via LC-MS/MS on a Shimadzu Nexera X2 HPLC coupled to an AB Sciex 6500 QTRAP.
Plasma exposure of selected compounds at 1 h compared.
Plasma levels of parent compound determined one hour after i.p. injection of 10 mg/kg

[3] = Pharmacokinetic study in mice, time course PK; type: in vivo; details: female, C57BL/6J, mouse, IP dose 10 mg/kg, plasma
Description: as §5
In vivo pharmacokinetic data for compound 18m in mice. Compound was formulated in 5% DMSO, 10% Tween 80 and water and administered by intraperitoneal injection.

Sequence of BIR3 domain of cIAP2 (Q13489 238-349 limits assumed): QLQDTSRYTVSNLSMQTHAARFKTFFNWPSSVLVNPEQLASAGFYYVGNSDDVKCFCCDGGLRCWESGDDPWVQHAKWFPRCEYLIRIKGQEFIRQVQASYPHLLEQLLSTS
Sequence of BIR3 domain of cIAP1 (Q13490 253-363 limits assumed): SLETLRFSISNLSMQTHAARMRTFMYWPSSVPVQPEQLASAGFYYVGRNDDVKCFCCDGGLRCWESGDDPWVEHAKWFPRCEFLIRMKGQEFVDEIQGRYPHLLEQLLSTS
Sequence of BIR3 domain of XIAP (P98170 241-356 limits assumed): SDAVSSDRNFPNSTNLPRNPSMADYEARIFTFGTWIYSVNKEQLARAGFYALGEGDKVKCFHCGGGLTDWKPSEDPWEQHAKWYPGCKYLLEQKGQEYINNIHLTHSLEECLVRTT

| Compound | IC50 (MOLM 13) [nM] | Ki (ML-IAP) [nM] | Ki (BIR3 domain of cIAP1) [nM] | Ki (BIR3 domain of XIAP) [nM] | Ki (BIR3 domain of cIAP2) [nM] | IC50 (NB-4) [nM] | IC50 (AML-SH-075) [nM] | AML-SH-075 Efficacy (AML-SH-075) | IC50 (AML-SH-065) [nM] | AML-SH-065 Efficacy (AML-SH-065) | IC50 (AML-SH-074) [nM] | AML-SH-074 Efficacy (AML-SH-074) | EC50 [1] [nM] | IC50 (SKOV-3) [nM] | concentration at 1 h [2] [µM] | AUC(0-t) [3] [µM·h] | Cmax [3] [µM] | Tmax [3] [h] | half-life ([3]; terminal half-life) [h] |
| --- | --- | --- | --- | --- | --- | --- | --- | --- | --- | --- | --- | --- | --- | --- | --- | --- | --- | --- | --- |
| CN[C@@H](C)C(=O)N[C@H]1CCS[C@H]2CC(C)(C)[C@@H](C(=O)N[C@H]3c4ccccc4C[C@H]3OCC#Cc3ccc(CO[C@@H]4Cc5ccccc5[C@@H]4NC(=O)[C@H]4N5C(=O)[C@@H](NC(=O)[C@H](C)NC)CCS[C@H]5CC4(C)C)cc3)N2C1=O [Compound 18e, (2S)-1-{[(4S,7S,9aS)-7-{[(1S,2R)-2-({3-[4-({[(1S,2R)-1-({[(4S,7S,9aS)-8,8-Dimethyl-4-{[(2S)-2-(methylammonio)propanoyl]amino}-5-oxooctahydropyrrolo[2,1-b][1,3]thiazepin-7-yl]carbonyl}amino)-2,3-dihydro-1H-inden-2-yl]oxy}methyl)phenyl]prop-2-ynyl}oxy)-2,3-dihydro-1H-inden-1-yl]carbamoyl}-8,8-dimethyl-5-oxooctahydropyrrolo[2,1-b][1,3]thiazepin-4-yl]amino}-N-methyl-1-oxopropan-2-ammonium dichloride] | 100 to 1000 | 100 to 200 | 50 to 100 | ≤ 50 | 100 to 200 | 10 to 100 | 1000 to 10000 | I (I < 10%) | 10 to 100 | I (I < 10%) | 100 to 1000 | I (I < 10%) | < 1 | < 10 | 6.2 | – | – | – | – |
| CN[C@@H](C)C(=O)N[C@H]1CCS[C@H]2CC(C)(C)[C@@H](C(=O)N[C@H]3c4ccccc4C[C@H]3OCc3ccc(CO[C@@H]4Cc5ccccc5[C@@H]4NC(=O)[C@H]4N5C(=O)[C@@H](NC(=O)[C@H](C)NC)CCS[C@H]5CC4(C)C)cc3)N2C1=O [Compound 18g, (2S)-1-{[(4S,7S,9aS)-7-{[(1S,2R)-2-{[4-({[(1S,2R)-1-({[(4S,7S,9aS)-8,8-Dimethyl-4-{[(2S)-2-(methylammonio)propanoyl]amino}-5-oxooctahydropyrrolo[2,1-b][1,3]thiazepin-7-yl]carbonyl}amino)-2,3-dihydro-1H-inden-2-yl]oxy}methyl)benzyl]oxy}-2,3-dihydro-1H-inden-1-yl]carbamoyl}-8,8-dimethyl-5-oxooctahydropyrrolo[2,1-b][1,3]thiazepin-4-yl]amino}-N-methyl-1-oxopropan-2-ammonium dichloride] | 10 to 100 | 50 to 100 | ≤ 50 | ≤ 50 | 50 to 100 | < 10 | 10 to 100 | I (I < 10%) | 10 to 100 | I (I < 10%) | 100 to 1000 | I (I < 10%) | 1 to 10 | < 10 | 2.69 | – | – | – | – |
| CC[C@H](NC)C(=O)N[C@H]1CCS[C@H]2CC(C)(C)[C@@H](C(=O)N[C@H]3c4ccccc4C[C@H]3OCC#CC#CCO[C@@H]3Cc4ccccc4[C@@H]3NC(=O)[C@H]3N4C(=O)[C@@H](NC(=O)[C@H](CC)NC)CCS[C@H]4CC3(C)C)N2C1=O [Compound 18m, [(1S)-1-{[(4S,7S,9aS)-7-{[(1S,2R)-2-[(6-{[(1S,2R)-1-[(4S,7S,9aS)-8,8-Dimethyl-4-[(2S)-2-(methylazaniumyl)butanamido]-5-oxo-octahydropyrrolo[2,1-b][1,3]thiazepine-7-amido]-2,3-dihydro-1H-inden-2-yl]oxy}hexa-2,4-diyn-1-yl)oxy]-2,3-dihydro-1H-inden-1-yl]carbamoyl}-8,8-dimethyl-5-oxo-octahydropyrrolo[2,1-b][1,3]thiazepin-4-yl]carbamoyl}propyl](methyl)azanium dichloride] | 10 to 100 | 50 to 100 | ≤ 50 | ≤ 50 | 50 to 100 | – | 10 to 100 | I (I < 10%) | < 10 | I (I < 10%) | 100 to 1000 | I (I < 10%) | 1 to 10 | < 10 | 6.59 | 18.1 | 6.6 | 1 | 3 |
